This is an account of results in ChEMBL document CHEMBL1129678, “Structure-activity relationships in a series of 2(1H)-quinolones bearing different acidic function in the 3-position: 6,7-dichloro-2(1H)-oxoquinoline-3-phosphonic acid, a new potent and selective AMPA/kainate antagonist with neuroprotective properties” (J Med Chem, 1996).

The term IC50 denotes the concentration that inhibits the measured activity by half. What is called ED50 is the dose that gives a 50% effect, or the effect in half of the subjects.

Test [1] addresses Glutamate receptor ionotropic, kainate. The experiment in a line: Antagonistic activity against rat ionotropic glutamate receptor ionotropic kainate in xenopus oocytes. The format is functional, cell-based. The settings on record: oocyte.
Test [2] has as its target Glutamate NMDA receptor. The experiment in a line: Antagonistic activity against N-methyl-D-aspartate glutamate receptor 1 in Xenopus oocytes. The settings on record: oocyte. The format is functional, cell-based.
The nature of test [3]: Selectivity between AMPA/kainate receptor and NMDA/glycine receptor. On the set-up: reference not given here.
Test [4] has as its system Mus musculus. Put plainly: Effective dose of a compound to […] 50% audiogenic seizures in DBA/2 mice when administered by ip (mg/Kg). The class given is functional.
For test [5], the target named is Glutamate NMDA receptor. The experiment in a line: Inhibitory activity against [3H]glycine binding site of N-methyl-D-aspartate glutamate receptor 1 in rat cortical membranes. The class given is cell membranes, Membrane.
The target in test [6] is AMPA receptor (Rattus norvegicus). The experiment in a line: Inhibitory activity against [3H]AMPA binding to rat cortical membranes.
Test [7] concerns Gerbillinae. The experiment in a line: %Protection against transient global ischemia in adult Mongolian gerbil at dose 10 mg/kg by ip administration tested against 10. The class given is functional. The following applies: route intraperitoneal.
For test [8], the system named is Gerbillinae. Put plainly: %Protection against transient global ischemia in adult Mongolian gerbil at dose 30 mg/kg by ip administration tested against 6. The following applies: route intraperitoneal. The class given is functional.
The test system of test [9] is Mus musculus. Put plainly: Effective dose of a compound to […] 50% audiogenic seizures in DBA/2 mice when administered by po (mg/kg); Not active. The class given is functional, organism-based.
The subject of test [10] is Mus musculus. Put plainly: Effective dose required to protect 50% of DBA/2 mice from audiogenic seizures, after ip administration. The class given is functional.
Test [11] relates to Gerbillinae. Put plainly: %Protection against transient global ischemia in adult Mongolian gerbil at dose 10 mg/Kg by ip administration tested against 10. The format is functional.
Test [12] deals with Gerbillinae. Put plainly: %Protection against transient global ischemia in adult Mongolian gerbil at dose 30 mg/Kg by ip administration tested against 6. The class given is functional.
Test [13] concerns Mus musculus. The experiment in a line: Effective dose required to protect 50% of DBA/2 mice from audiogenic seizures, after po administration. The class given is functional.

Active and inactive are the calls of the source. The rule behind the calls is not given here.

Turning to `O=P(O)(OCC1CCCC1)c1cc2cc(Cl)c(Cl)cc2nc1O`, the IC50 in test [1] stood at 15 µM; in test [2] it was 74 µM. The compound further registered a Selectivity in test [3] of 5.

Regarding `O=[N+]([O-])c1ccc2cc(-c3nn[nH]n3)c(O)nc2c1`, the figures for the concentration for half-maximal inhibition (IC50) in test [1] and in [2] were 3 µM and more than 16 µM, respectively. This compound also displayed a Selectivity in test [3] of more than 5.

For the compound `O=c1[nH]c2cc(-n3ccnc3)c([N+](=O)[O-])cc2[nH]c1=O` [YM-90K], the figures for the IC50 in test [1] and in [2] were 0.3 µM and 30.5 µM, respectively. The same compound yielded a Selectivity in [3] of 102.

On to `O=P(O)(O)c1cc2c(Cl)cc(Cl)cc2nc1O`, for which the IC50 was determined as 4 µM in [1], 30 µM in test [2], 5.1 µM in [5] and 3.5 µM in test [6]. The same compound gave an ED50 in [4] of more than 50 mg/kg. Besides, the Selectivity in test [3] is 7.5.

Turning to `O=[N+]([O-])c1cc2cc(-c3nn[nH]n3)c(O)nc2cc1[N+](=O)[O-]`, the IC50 in [1] was determined as 0.6 µM; in test [2], 20 µM. Also, the Selectivity in test [3] amounted to 33.

On to `O=C(NO)c1cc2ccc([N+](=O)[O-])cc2nc1O`, for which the IC50 in test [1] is 10 µM; in [2], more than 100 µM. Further, in [3], the Selectivity was more than 10.

As for `O=C(O)c1cc2ccc([N+](=O)[O-])cc2nc1O`, the IC50 in test [1] was determined as 1.3 µM; in test [2], 6.5 µM. The compound further registered a Selectivity in [3] of 5.

As to `NS(=O)(=O)c1cccc2c1c([N+](=O)[O-])cc1nc(O)c(O)nc12` [NBQX], the Protection in test [7] was 40%; in [8] it was 50%. Moreover, the ED50 result in [9] was “inactive”. Moreover, the values for the IC50 in test [2] and in test [5] were 255 µM and more than 500 µM, respectively. This compound returned a 50% effective dose (ED50) in test [10] of 8 mg/kg.

On to `O=P(O)(O)c1cc2cc(Cl)c(Cl)cc2nc1O`, for which the results for the Protection in test [11] and in test [12] were 40% and 100%, respectively. Besides, the ED50 in test [13] is 45 mg/kg; in test [10], 19 mg/kg. Besides, in test [3], the Selectivity is 39.8.

In the case of `O=c1[nH]c2cc(Cl)c(Cl)cc2cc1P(=O)(O)O`, the IC50 in [1] was 2.1 µM; in test [2], 83.5 µM; in [5] it was 111 µM; in test [6], 0.9 µM.

`O=[N+]([O-])c1cc2cc(NS(=O)(=O)C(F)(F)F)c(O)nc2cc1[N+](=O)[O-]`: the IC50 is 0.16 µM in test [1], 0.16 µM in test [2], 1.38 µM in [5] and 0.09 µM in test [6]. The compound also returned a Selectivity in [3] of 1. Moreover, the ED50 in [10] was more than 50 mg/kg.

On to `OB(O)c1cc2c(Cl)cc(Cl)cc2nc1O`, for which the results for the IC50 in test [1] and in test [2] were more than 100 µM and more than 300 µM, respectively.

`O=C(Nc1nn[nH]n1)c1cc2ccc([N+](=O)[O-])cc2nc1O`: the IC50 was 100 µM in [1] and more than 16 µM in [2]. This compound also displayed a Selectivity in [3] of more than 0.16.

On to `CCOP(=O)(O)c1cc2cc(Cl)c(Cl)cc2nc1O`, for which the IC50 came to 15 µM in [1] and 40 µM in [2]. Further, the Selectivity in [3] was determined as 2.6.

For the compound `O=[N+]([O-])c1cc2cc(P(=O)(O)O)c(O)nc2cc1[N+](=O)[O-]`, the IC50 in [1] stood at 0.15 µM; in test [2] it was 51.5 µM. The compound further displayed a Selectivity in test [3] of 343.

As for `O=[N+]([O-])c1ccc2cc(P(=O)(O)O)c(O)nc2c1`, the IC50 in [1] was 1.4 µM; in test [2] it was 57 µM. The Selectivity in [3] was found to be 41.

For the compound `O=C(O)c1cc2cc(Cl)c(Cl)cc2nc1O`, the results for the IC50 in test [1] and in [2] were 10 µM and 0.81 µM, respectively. Besides, the Selectivity in test [3] came to 0.08.

Regarding `O=[N+]([O-])c1ccc2cc(-c3nnc(O)o3)c(O)nc2c1`, the IC50 in test [1] and in test [2] was more than 100 µM in each case.

With `O=C(O)c1cc2c(Cl)cc(Cl)cc2nc1O`, the IC50 in test [1] came to 8 µM; in [2] it was 0.65 µM. Moreover, the Selectivity in test [3] was 0.08.

For `O=C(O)c1cc2cc([N+](=O)[O-])c([N+](=O)[O-])cc2nc1O`, the IC50 was found to be 0.3 µM in [1], 0.57 µM in [2], 1.8 µM in test [5] and 0.15 µM in test [6]. Moreover, in test [3], the Selectivity was 1.9. The same compound showed an ED50 in test [10] of more than 50 mg/kg.

For the compound `NC(=O)c1cc2ccc([N+](=O)[O-])cc2nc1O`, the IC50 in [1] and in test [2] was more than 300 µM throughout.

Take `O=P(O)(O)c1cc2cc(F)c(F)cc2nc1O`: the 50% inhibitory concentration (IC50) is 65 µM in [1] and 111 µM in test [2]. The compound further displayed a Selectivity in test [3] of 1.71.

With `CP(=O)(O)c1cc2c(Cl)cc(Cl)cc2nc1O`, the IC50 in test [1] is more than 100 µM; in test [2] it was 51 µM. In addition, the Selectivity in test [3] is less than 0.5.

As for `O=c1[nH]c2cc([N+](=O)[O-])ccc2cc1-c1cc(O)n[nH]1`, the IC50 is more than 30 µM in test [1] and more than 100 µM in test [2].

Regarding `O=C(O)CSc1cc2ccc([N+](=O)[O-])cc2nc1O`, the IC50 in test [1] is 5 µM; in test [2] it was more than 100 µM. In [3], the Selectivity was more than 20.
